Patent publication US7192918B2, “Tripeptide and tetrapeptide sulfones” (Telik, Inc., priority 2005, dated 2007)
“Also recorded” adds a separate entry of the source.

Legend:
[1] = target: T1, Recombinant human GST M1-1 (Homo sapiens, UniProt P09488); experiment: Inhibition of glutathione S-transferase isoenzyme GST M1-1 (CDNB/GSH, absorbance at 340 nm); type: biochemical; conditions: diacids (row number n = compound nA), pH 6.5, 2% DMSO
T1 construct: purchased EMD Biosciences, Inc., San Diego, Calif., U.S.A
T1 sequence (P09488 2-218 limits assumed): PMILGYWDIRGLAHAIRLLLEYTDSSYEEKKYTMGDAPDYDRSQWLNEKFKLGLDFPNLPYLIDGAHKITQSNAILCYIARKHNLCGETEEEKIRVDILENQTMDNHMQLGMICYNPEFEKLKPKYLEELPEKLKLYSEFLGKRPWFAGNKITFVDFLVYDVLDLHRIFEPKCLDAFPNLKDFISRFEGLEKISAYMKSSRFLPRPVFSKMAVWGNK
Method: (§1) In vitro Example 1. Inhibition of glutathione S-transferase isoenzymes. […] For each assay, the test compound and GSH were added to the isoenzyme. Immediately after the addition of CDNB solution to the isoenzyme/compound/GSH solution, the absorbance at 340 nm was recorded continuously for 5 min on a SpectraMax plate reader (Molecular Devices, Inc., Sunnyvale, Calif., U.S.A.). The GST inhibitory activity of each compound was calculated from the slopes of the absorbance/time curves at the various concentrations of test compound. All assays were conducted in duplicate wells, with DMSO control, with the final DMSO concentration maintained at 2%.

[2] = target: T2, Recombinant human GST P1-1 (Homo sapiens, UniProt P09211); experiment: Inhibition of glutathione S-transferase isoenzyme GST P1-1 (CDNB/GSH, absorbance at 340 nm); type: biochemical; conditions: diacids (row number n = compound nA), pH 6.5, 2% DMSO
T2 construct: purchased EMD Biosciences, Inc., San Diego, Calif., U.S.A
T2 sequence (P09211 2-210 limits assumed): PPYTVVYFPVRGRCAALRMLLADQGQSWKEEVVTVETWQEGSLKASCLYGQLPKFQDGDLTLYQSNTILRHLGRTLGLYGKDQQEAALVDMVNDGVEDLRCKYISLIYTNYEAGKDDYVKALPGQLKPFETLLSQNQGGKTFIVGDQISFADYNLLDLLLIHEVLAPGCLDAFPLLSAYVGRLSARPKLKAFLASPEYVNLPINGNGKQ
Method: as §1

[3] = target: T3, Recombinant human GST A1-1 (Homo sapiens, UniProt P08263); experiment: Inhibition of glutathione S-transferase isoenzyme GST A1-1 (CDNB/GSH, absorbance at 340 nm); type: biochemical; conditions: diacids (row number n = compound nA), pH 6.5, 2% DMSO
T3 construct: purchased EMD Biosciences, Inc., San Diego, Calif., U.S.A
T3 sequence (P08263 1-222): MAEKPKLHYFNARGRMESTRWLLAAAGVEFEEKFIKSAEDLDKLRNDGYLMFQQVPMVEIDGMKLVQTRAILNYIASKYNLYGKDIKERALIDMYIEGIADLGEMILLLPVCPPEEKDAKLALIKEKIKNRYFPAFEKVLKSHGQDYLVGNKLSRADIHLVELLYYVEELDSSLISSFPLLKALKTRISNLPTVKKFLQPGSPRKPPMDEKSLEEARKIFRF
Method: as §1

HL-60 cells [4] = experiment: Enhancement of differentiation of HL-60 cells (CD11b surface expression, flow cytometry); type: cell-based, human; conditions: diethyl esters, 24 hours
Method: Some of the diethyl ester compounds of this invention were also tested for their ability to enhance the differentiation of HL-60 cells. This illustrates the beneficial effect of the compounds of this invention in stimulating differentiation of the HL-60 human leukemia cell line in vitro. […] The cells were harvested by centrifugation (1250 rpm for 5 min at 20° C.) and washed with 2 mL ice-cold phosphate-buffered saline (PBS) containing 2% FBS, then stained with 10 μL phycoerythrin-conjugated anti-CD11b antibody or 10 μL phycoerythrin-conjugated isotype control antibody. After standing for 30 min on ice, the cells were re-suspended in 2 mL ice-cold PBS containing 2% FBS. The cells were harvested by centrifugation (1250 rpm for 5 min at 20° C.) and resuspended in 0.4 mL PBS containing 2% FBS. The specific cell surface expression of CD11b, a marker for granulocytes and monocytes, was detected by flow cytometry using a FACSCalibur analyzer (BD Biosciences). All assays were conducted in triplicate, with DMSO control. The extent of differentiation was expressed as a multiple of the signal from the DMSO control.

[5] = both in vitro and in vivo; cited from earlier work
HL-60 cells [6] = conditions: background statement; cited from earlier work
[7] = Phase II, interim results; cited from earlier work

IC50 [1] | IC50 [2] | IC50 [3] | Compound | Differentiation of HL-60 cells (CD11b expression as multiple of DMSO control) (HL-60 cells [4]) | Potentiation of the activity of cytotoxic agents [5] | Differentiation of HL-60 promyelocytic leukemia cells in vitro (HL-60 cells [6]) | Hematologic response in humans [7] | Tolerability in MDS patients [7]
100 µM | 3.2 µM | 52 µM | N[C@@H](CCC(=O)N[C@@H](CS(=O)(=O)Cc1ccc([N+](=O)[O-])o1)C(=O)N[C@@H](C(=O)O)c1ccccc1)C(=O)O [Compound 14A, L-γ-glutamyl-3-[(5-nitrofuran-2-ylmethyl)sulfonyl]-L-alanyl-D-phenylglycine] | – | – | – | – | –
– | – | – | CCOC(=O)[C@@H](N)CCC(=O)N[C@@H](CSCc1ccccc1)C(=O)N[C@@H](C(=O)OCC)c1ccccc1 [TLK199] | enhances differentiation | chemopotentiation activity in an animal model | induce the differentiation of HL-60 promyelocytic leukemia cells | myelostimulant activity in humans; also recorded: multilineage hematologic improvement | well tolerated
